The supplement of paper PMC10307832

Compound: CC(=O)c1c(C)c2cnc(Nc3ccc(N4CCNCC4)cn3)nc2n(C2CCCC2)c1=O [Palbociclib]
Experiment: relative viability (nuclei count vs DMSO), 5 days (fraction); higher = more cells survive
Procedure, shortened: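 On vehicle-anchored 1536-well plates, lung cancer cell lines held overnight at 37 °C were pinned with five library-drug doses (not always all listed) spaced by √10. With no medium change over 5 days, they were then fixed, permeabilised and Hoechst-stained in one step and imaged at 4×. MetaXpress counted nuclei, and viability is the median across plates of treated-well over vehicle-well nuclei. Acceptance needed control CV below 25% and at least one doubling.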

Row | Cell Line | relative viability (0.01 µM) | relative viability (0.03162 µM) | relative viability (0.1 µM) | relative viability (0.3162 µM) | relative viability (0.5 µM, anchor plate) | relative viability (1 µM)
1 | LU99A | 0.91 | 0.711 | 0.924 | 0.928 | 0.414 | 0.65
2 | HCC-15 | 0.986 |  | 0.915 | 0.828 | 0.717 | 0.732
3 | NCI-H1355 | 0.999 | 0.672 | 0.884 | 0.844 | 0.427 | 0.62
4 | NCI-H522 | 1.15 | 0.616 | 0.949 | 0.915 | 1.02 | 0.879
5 | LK-2 | 1 | 0.736 | 0.8 | 0.965 | 0.727 | 0.803
6 | 201T | 1.02 | 0.863 | 0.9 | 0.867 | 0.349 | 0.571
7 | LCLC-97TM1 | 1.03 |  | 0.657 | 0.741 | 0.225 | 0.272
8 | NCI-H2342 | 1.01 | 0.846 | 0.849 | 0.785 | 0.527 | 0.621
9 | BEN | 1.04 | 0.813 | 0.778 | 0.814 | 0.487 | 0.476
10 | NCI-H520 | 0.915 | 0.677 | 0.596 | 0.549 | 0.237 | 0.36
11 | HCC-78 | 0.998 | 0.756 | 0.698 | 0.703 | 0.477 | 0.385
12 | NCI-H2009 | 0.991 | 0.905 | 0.781 | 0.693 | 0.237 | 0.35
13 | NCI-H1650 | 0.928 | 0.734 | 0.77 | 0.726 | 0.359 | 0.487
14 | NCI-H2085 | 0.979 | 0.966 | 0.879 | 0.805 | 0.475 | 0.574
15 | NCI-H1703 | 0.912 | 0.676 | 0.842 | 0.444 |  | 0.345
16 | LOU-NH91 | 1.09 | 0.661 | 0.723 | 0.702 | 0.529 | 0.608
17 | NCI-H1734 | 0.951 | 0.592 | 0.75 | 0.659 | 0.345 | 0.538
18 | NCI-H1792 | 0.987 | 0.8 | 0.696 | 0.612 | 0.678 | 0.383
19 | HARA | 1.1 |  | 0.746 | 0.652 | 0.262 | 0.392
20 | NCI-H2087 | 1.08 | 0.546 | 0.815 | 0.586 | 0.242 | 0.364

Row | Cell Line | relative viability (0.01 µM) | relative viability (0.03162 µM) | relative viability (0.1 µM) | relative viability (0.3162 µM) | relative viability (0.5 µM, anchor plate) | relative viability (1 µM)
21 | COR-L 105 | 1 | 0.724 | 0.616 | 0.651 | 0.408 | 0.473
22 | Calu-6 | 1.06 | 0.919 | 0.833 | 0.79 |  | 0.588
23 | CAL-12T | 1 | 0.851 | 0.75 | 0.651 | 0.446 | 0.611
24 | HCC-44 | 0.891 | 0.82 | 0.969 | 0.96 | 0.962 | 1.02
25 | SK-MES-1 | 0.931 | 0.852 | 0.683 | 0.648 | 0.327 | 0.361
26 | SW 1573 | 0.994 | 0.789 | 0.8 | 0.723 | 0.419 | 0.617
27 | NCI-H2023 | 0.913 | 0.773 | 0.694 | 0.625 | 0.392 | 0.4
28 | NCI-H1651 | 0.967 | 0.971 | 0.986 | 0.971 | 0.537 | 0.772
29 | EMC-BAC-2 | 0.999 | 0.749 | 0.791 | 0.736 | 0.514 | 0.589
30 | NCI-H1993 | 1.05 | 0.882 | 0.726 | 0.69 | 0.658 | 0.67
31 | UMC-11 | 1 | 0.824 | 0.709 | 0.575 | 0.332 | 0.291
32 | LXF-289 | 1.01 | 0.878 | 0.928 | 0.899 | 0.593 | 0.796
33 | NCI-H3122 | 0.977 | 0.944 | 0.866 | 0.797 | 0.192 | 0.456
34 | NCI-H23 | 0.973 | 0.417 | 0.765 | 0.877 | 0.538 | 0.593
35 | IA-LM | 0.901 | 0.54 | 0.559 | 0.428 |  | 0.162
36 | EBC-1 | 1.02 | 0.809 | 0.662 | 0.543 |  | 0.248
37 | NCI-H460 | 0.974 | 0.81 | 0.912 | 0.864 | 0.199 | 0.532
38 | LC-2-ad | 0.902 |  | 0.816 | 0.73 | 0.479 | 0.518
39 | HCC-827 | 1.04 | 0.904 | 0.887 | 0.912 | 0.483 | 0.786
